Experimental data reported in ChEMBL document CHEMBL3885881, “DrugMatrix”.

Species on record: Rattus norvegicus
Experiment: DrugMatrix - Regimen: Daily Repeat
Assay type: toxicity, organism-based, Sprague-Dawley
Set-up: regimen Daily Repeat, gender Male, age 6-8 weeks
Conditions: in vivo, po, route oral GAVAGE, vehicle .5 % CMC; for ABSOLUTE BASOPHIL / ABSOLUTE EOSINOPHIL / ABSOLUTE LYMPHOCYTE / ABSOLUTE MONOCYTE / ABSOLUTE SEGMENTED NEUTROPHIL / BASOPHIL / EOSINOPHIL / ERYTHROCYTE COUNT / HEMATOCRIT / HEMOGLOBIN / LEUKOCYTE COUNT / LYMPHOCYTE / MEAN CORPUSCULAR HEMOGLOBIN / MEAN CORPUSCULAR HEMOGLOBIN CONCENTRATION / MEAN CORPUSCULAR VOLUME / MONOCYTE / NEUTROPHIL / NUCLEATED RED BLOOD CELLS / PLATELET COUNT: tissue Blood; for ALANINE AMINOTRANSFERASE / ALBUMIN / ALKALINE PHOSPHATASE / ASPARTATE AMINOTRANSFERASE / BLOOD UREA NITROGEN / CARBON DIOXIDE / CHLORIDE / CHOLESTEROL / CREATINE PHOSPHOKINASE / CREATININE / GLUCOSE / LACTATE DEHYDROGENASE / LIPASE / PHOSPHORUS / POTASSIUM / SODIUM / TOTAL BILIRUBIN / TOTAL PROTEIN / URIC ACID: tissue Plasma
[1] = 0 mg/kg, 72 h, dose level Control, time 3 day
[2] = 0 mg/kg, 120 h, dose level Control, time 5 day
[3] = 150 mg/kg, 72 h, dose level Low, time 3 day

With C[C@@H](O)[C@H]1C(=O)N2C(C(=O)O)=C(S[C@@H]3CN[C@H](C(=O)N(C)C)C3)[C@H](C)[C@H]12 [MEROPENEM] the “ABSOLUTE BASOPHIL” value [1] was 0 CELLS/uL, the “ABSOLUTE EOSINOPHIL” value [1] was 222.83 CELLS/uL and the “ABSOLUTE LYMPHOCYTE” value [1] was 14453 CELLS/uL. For the same compound, the “ABSOLUTE MONOCYTE” value [1] was 0 CELLS/uL, the “ABSOLUTE SEGMENTED NEUTROPHIL” value [1] was 1490.83 CELLS/uL and the BASOPHIL [1] was 0%. For the same compound, the EOSINOPHIL [1] was 1.33%, the “ERYTHROCYTE COUNT” value [1] was 5.76 x10E6/uL and the HEMATOCRIT [1] was 36.52%. The HEMOGLOBIN [1] was 13.45 G/DL, the “LEUKOCYTE COUNT” value [1] was 16.17 x10E3/uL and the LYMPHOCYTE [1] was 89.33%. For the same compound, the “MEAN CORPUSCULAR HEMOGLOBIN” value [1] was 23.37 pg, the “MEAN CORPUSCULAR HEMOGLOBIN CONCENTRATION” value [1] was 36.85 G/DL and the “MEAN CORPUSCULAR VOLUME” value [1] was 63.47 fL. The MONOCYTE [1] was 0%, the NEUTROPHIL [1] was 9.33% and the “NUCLEATED RED BLOOD CELLS” value [1] was 0 /100WBC. The “PLATELET COUNT” value [1] was 1239.5 x10E3/uL, the “ALANINE AMINOTRANSFERASE” value [1] was 43.83 u/L and the ALBUMIN [1] was 4.27 G/DL. The “ALKALINE PHOSPHATASE” value [1] was 398.83 u/L, the “ASPARTATE AMINOTRANSFERASE” value [1] was 81.17 u/L and the “BLOOD UREA NITROGEN” value [1] was 17.67 mg/dL. The “CARBON DIOXIDE” value [1] was 27.5 mmol/L, the CHLORIDE [1] was 99.17 MEQ/L and the CHOLESTEROL [1] was 74 mg/dL. The “CREATINE PHOSPHOKINASE” value [1] was 331.5 u/L, the CREATININE [1] was 0.2 mg/dL and the GLUCOSE [1] was 171.33 mg/dL. For the same compound, the “LACTATE DEHYDROGENASE” value [1] was 241.67 u/L, the LIPASE [1] was 9.5 u/L and the PHOSPHORUS [1] was 12.25 mg/dL. The POTASSIUM [1] was 6.33 MEQ/L, the SODIUM [1] was 141.28 MEQ/L and the “TOTAL BILIRUBIN” value [1] was 0.15 mg/dL. The “TOTAL PROTEIN” value [1] was 5.98 G/DL, the “URIC ACID” value [1] was 1.63 mg/dL and the “ABSOLUTE BASOPHIL” value [2] was 0 CELLS/uL. For the same compound, the “ABSOLUTE EOSINOPHIL” value [2] was 148.67 CELLS/uL, the “ABSOLUTE LYMPHOCYTE” value [2] was 16020.5 CELLS/uL and the “ABSOLUTE MONOCYTE” value [2] was 29.17 CELLS/uL. The “ABSOLUTE SEGMENTED NEUTROPHIL” value [2] was 1468.33 CELLS/uL, the BASOPHIL [2] was 0% and the EOSINOPHIL [2] was 1%. The “ERYTHROCYTE COUNT” value [2] was 5.78 x10E6/uL, the HEMATOCRIT [2] was 35.77% and the HEMOGLOBIN [2] was 13.4 G/DL. The “LEUKOCYTE COUNT” value [2] was 17.67 x10E3/uL, the LYMPHOCYTE [2] was 90.5% and the “MEAN CORPUSCULAR HEMOGLOBIN” value [2] was 23.22 pg. For the same compound, the “MEAN CORPUSCULAR HEMOGLOBIN CONCENTRATION” value [2] was 37.47 G/DL, the “MEAN CORPUSCULAR VOLUME” value [2] was 61.92 fL and the MONOCYTE [2] was 0.17%. The NEUTROPHIL [2] was 8.33%, the “NUCLEATED RED BLOOD CELLS” value [2] was 0.17 /100WBC and the “PLATELET COUNT” value [2] was 1255.5 x10E3/uL. The “ALANINE AMINOTRANSFERASE” value [2] was 46.5 u/L, the ALBUMIN [2] was 4.38 G/DL and the “ALKALINE PHOSPHATASE” value [2] was 336 u/L. The “ASPARTATE AMINOTRANSFERASE” value [2] was 76.5 u/L, the “BLOOD UREA NITROGEN” value [2] was 20 mg/dL and the “CARBON DIOXIDE” value [2] was 27.5 mmol/L. The CHLORIDE [2] was 101 MEQ/L, the CHOLESTEROL [2] was 71.33 mg/dL and the “CREATINE PHOSPHOKINASE” value [2] was 231.83 u/L. The CREATININE [2] was 0.37 mg/dL, the GLUCOSE [2] was 168.83 mg/dL and the “LACTATE DEHYDROGENASE” value [2] was 174 u/L. For the same compound, the LIPASE [2] was 8.67 u/L, the PHOSPHORUS [2] was 11.48 mg/dL and the POTASSIUM [2] was 6.82 MEQ/L. For the same compound, the SODIUM [2] was 143.8 MEQ/L, the “TOTAL BILIRUBIN” value [2] was 0.2 mg/dL and the “TOTAL PROTEIN” value [2] was 5.98 G/DL. The “URIC ACID” value [2] was 1.83 mg/dL, the “ABSOLUTE BASOPHIL” value [3] was 0 CELLS/uL and the “ABSOLUTE EOSINOPHIL” value [3] was 455.67 CELLS/uL. For the same compound, the “ABSOLUTE LYMPHOCYTE” value [3] was 14286.67 CELLS/uL, the “ABSOLUTE MONOCYTE” value [3] was 45.33 CELLS/uL and the “ABSOLUTE SEGMENTED NEUTROPHIL” value [3] was 1912.33 CELLS/uL. The BASOPHIL [3] was 0%, the EOSINOPHIL [3] was 2.67% and the “ERYTHROCYTE COUNT” value [3] was 5.53 x10E6/uL. For the same compound, the HEMATOCRIT [3] was 35.53%, the HEMOGLOBIN [3] was 13.27 G/DL and the “LEUKOCYTE COUNT” value [3] was 16.7 x10E3/uL. The LYMPHOCYTE [3] was 85.67%, the “MEAN CORPUSCULAR HEMOGLOBIN” value [3] was 24.03 pg and the “MEAN CORPUSCULAR HEMOGLOBIN CONCENTRATION” value [3] was 37.37 G/DL. For the same compound, the “MEAN CORPUSCULAR VOLUME” value [3] was 64.3 fL, the MONOCYTE [3] was 0.33% and the NEUTROPHIL [3] was 11.33%. For the same compound, the “NUCLEATED RED BLOOD CELLS” value [3] was 0 /100WBC, the “PLATELET COUNT” value [3] was 1310.33 x10E3/uL and the “ALANINE AMINOTRANSFERASE” value [3] was 52.67 u/L. For the same compound, the ALBUMIN [3] was 4.33 G/DL, the “ALKALINE PHOSPHATASE” value [3] was 370.33 u/L and the “ASPARTATE AMINOTRANSFERASE” value [3] was 85.67 u/L. For the same compound, the “BLOOD UREA NITROGEN” value [3] was 16.33 mg/dL, the “CARBON DIOXIDE” value [3] was 27 mmol/L and the CHLORIDE [3] was 101.33 MEQ/L. The CHOLESTEROL [3] was 78.33 mg/dL, the “CREATINE PHOSPHOKINASE” value [3] was 300.67 u/L and the CREATININE [3] was 0.22 mg/dL. For the same compound, the GLUCOSE [3] was 154.33 mg/dL, the “LACTATE DEHYDROGENASE” value [3] was 406.33 u/L and the LIPASE [3] was 9 u/L. The PHOSPHORUS [3] was 11.9 mg/dL, the POTASSIUM [3] was 6.59 MEQ/L and the SODIUM [3] was 143 MEQ/L. For the same compound, the “TOTAL BILIRUBIN” value [3] was 0.2 mg/dL, the “TOTAL PROTEIN” value [3] was 6.03 G/DL and the “URIC ACID” value [3] was 2 mg/dL.
